PMC4687028 (Journal of medicinal chemistry, 2015)

How the values were obtained:
[1] = target: T1, recombinant human ER-α (Homo sapiens, UniProt P03372); experiment: ER-α competitor binding assay, fluorescence polarization, displacement of ES2; settings: at the concentration of 100,000 nM
T1 sequence (P03372 1-595): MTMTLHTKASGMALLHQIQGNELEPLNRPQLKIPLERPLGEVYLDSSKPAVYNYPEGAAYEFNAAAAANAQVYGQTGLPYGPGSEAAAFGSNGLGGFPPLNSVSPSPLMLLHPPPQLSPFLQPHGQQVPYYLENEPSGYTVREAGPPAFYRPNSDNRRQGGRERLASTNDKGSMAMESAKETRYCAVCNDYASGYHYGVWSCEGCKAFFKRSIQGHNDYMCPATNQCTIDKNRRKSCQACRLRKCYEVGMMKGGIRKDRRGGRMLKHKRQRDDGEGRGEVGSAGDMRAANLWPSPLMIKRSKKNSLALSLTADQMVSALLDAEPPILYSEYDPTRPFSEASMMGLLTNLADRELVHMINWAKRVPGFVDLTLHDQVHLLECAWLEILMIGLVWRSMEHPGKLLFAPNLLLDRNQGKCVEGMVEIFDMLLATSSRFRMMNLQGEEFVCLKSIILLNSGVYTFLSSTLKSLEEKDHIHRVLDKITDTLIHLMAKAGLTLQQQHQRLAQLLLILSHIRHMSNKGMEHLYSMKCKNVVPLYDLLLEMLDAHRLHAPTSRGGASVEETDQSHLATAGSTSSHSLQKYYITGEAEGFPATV

[2] = target: T2, Recombinant CYP2A6 (Homo sapiens, UniProt P11509); experiment: Inhibition of recombinant CYP2A6; format: biochemical
T2 sequence (P11509 1-494): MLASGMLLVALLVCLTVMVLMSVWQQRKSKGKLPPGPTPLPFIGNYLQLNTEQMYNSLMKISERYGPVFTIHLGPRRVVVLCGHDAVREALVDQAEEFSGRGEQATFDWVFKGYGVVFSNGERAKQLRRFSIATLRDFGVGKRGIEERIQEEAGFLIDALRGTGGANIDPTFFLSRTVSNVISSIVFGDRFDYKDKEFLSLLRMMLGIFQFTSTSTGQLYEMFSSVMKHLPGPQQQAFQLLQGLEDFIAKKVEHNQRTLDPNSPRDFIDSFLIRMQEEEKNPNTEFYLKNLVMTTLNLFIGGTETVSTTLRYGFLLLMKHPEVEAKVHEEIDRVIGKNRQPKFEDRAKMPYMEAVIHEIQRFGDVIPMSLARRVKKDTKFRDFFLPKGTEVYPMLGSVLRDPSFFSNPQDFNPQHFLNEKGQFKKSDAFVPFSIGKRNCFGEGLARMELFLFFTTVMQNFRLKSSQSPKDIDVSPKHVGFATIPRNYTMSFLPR

[3] = target: T3, recombinant human aromatase (CYP19) (Homo sapiens, UniProt P11511); experiment: Inhibition of recombinant human aromatase; format: biochemical
T3 sequence (P11511 1-503): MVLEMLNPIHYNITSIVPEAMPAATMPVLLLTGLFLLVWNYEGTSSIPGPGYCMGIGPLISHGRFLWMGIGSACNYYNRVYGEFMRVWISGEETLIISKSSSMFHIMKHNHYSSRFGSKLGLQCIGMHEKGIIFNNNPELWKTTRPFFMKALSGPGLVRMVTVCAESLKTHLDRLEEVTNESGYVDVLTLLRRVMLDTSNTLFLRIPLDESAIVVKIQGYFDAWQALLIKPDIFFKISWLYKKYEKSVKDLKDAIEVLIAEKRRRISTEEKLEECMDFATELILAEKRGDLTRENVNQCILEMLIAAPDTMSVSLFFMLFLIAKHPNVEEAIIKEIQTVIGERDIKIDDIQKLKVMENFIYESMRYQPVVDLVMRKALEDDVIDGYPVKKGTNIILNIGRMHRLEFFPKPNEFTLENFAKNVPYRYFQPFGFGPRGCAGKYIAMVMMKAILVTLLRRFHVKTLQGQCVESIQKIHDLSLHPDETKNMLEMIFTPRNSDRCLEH

[4] = target: Recombinant CYP2D6 (Homo sapiens, UniProt P10635); settings: previously published; cited from earlier work
Chain of Recombinant CYP2D6 (P10635 whole entry): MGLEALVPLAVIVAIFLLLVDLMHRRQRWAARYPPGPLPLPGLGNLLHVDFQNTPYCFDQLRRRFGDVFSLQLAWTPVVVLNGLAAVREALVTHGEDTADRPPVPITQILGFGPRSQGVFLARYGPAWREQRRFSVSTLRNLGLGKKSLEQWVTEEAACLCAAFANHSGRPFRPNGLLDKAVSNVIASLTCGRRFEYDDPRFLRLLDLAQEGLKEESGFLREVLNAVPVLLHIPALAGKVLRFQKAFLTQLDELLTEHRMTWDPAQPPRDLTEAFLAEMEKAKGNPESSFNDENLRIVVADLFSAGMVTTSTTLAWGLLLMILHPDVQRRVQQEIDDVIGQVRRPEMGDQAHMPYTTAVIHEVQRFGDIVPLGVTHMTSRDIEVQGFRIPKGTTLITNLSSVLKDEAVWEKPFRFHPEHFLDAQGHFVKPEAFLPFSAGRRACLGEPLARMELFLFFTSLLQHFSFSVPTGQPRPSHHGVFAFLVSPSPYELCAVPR

Compound	Percent ER competition, ER-α [1] [% competition]	also measured
CC/C(=C(/c1ccc(O)cc1)c1ccc(OCCCl)cc1)c1ccccc1 [Compound 55a, 4-(1-(4-(2-Chloroethoxy)phenyl)-2-phenylbut-1-en-1-yl)phenol]	62	
CC/C(=C(/c1ccc(O)cc1)c1ccc(OCCN)cc1)c1ccc(O)cc1 [Compound 10, 4,4'-(1-(4-(2-Aminoethoxy)phenyl)but-1-ene-1,2-diyl)diphenol]		IC50 [2]: 6.73 ± 0.66 µM; Potency against aromatase (CYP19) relative to norendoxifen ([3]; Ki 20.0 nM versus Ki […] nM): 4 fold; Selectivity toward CYP19 versus all other CYP P450 enzymes tested ([3]; other than CYP1A2, from Ki values): > 21 fold
CC/C(=C(/c1ccc(O)cc1)c1ccc(OCCN)cc1)c1ccccc1 [Norendoxifen]		Recombinant CYP2D6 IC50 (nM) [4]: No inhibition; Recombinant CYP2D6 Ki (nM) [4]: No inhibition
N#CC/C(=C(/c1ccc(O)cc1)c1ccc(OCCN)cc1)c1ccccc1 [Compound 40, 4-(4-(2-Aminoethoxy)phenyl)-4-(4-hydroxyphenyl)-3-phenylbut-3-enenitrile]	48	
CC/C(=C(/c1ccc(O)cc1)c1ccc(OCCBr)cc1)c1ccccc1 [Compound 50, 4-(1-(4-(2-Bromoethoxy)phenyl)-2-phenylbut-1-en-1-yl)phenol]	60	

Further lines, with some results ahead:

Percent ER competition, ER-α [1] [% competition]	Compound	also measured
54	CC(C)/C(=C(/c1ccc(O)cc1)c1ccc(OCCN)cc1)c1ccccc1 [Compound 29d, 4-(1-(4-(2-Aminoethoxy)phenyl)-3-methyl-2-phenylbut-1-enyl)phenol]	
59	NCCOc1ccc(/C(=C(\Cn2ccnc2)c2ccccc2)c2ccc(O)cc2)cc1 [Compound 41, 4-(1-(4-(2-Aminoethoxy)phenyl)-3-(1H-imidazol-1-yl)-2-phenylprop-1-en-1-yl)phenol]	
0	CC/C(=C(/c1ccccc1)c1ccc(OCCN)cc1)c1ccccc1 [Compound 18, 2-(4-(1,2-Diphenylbut-1-en-1-yl)phenoxy)ethan-1-amine]	
55	CC/C(=C(/c1ccc(O)cc1)c1ccc(OCC(=O)O)cc1)c1ccccc1 [Compound 49, 2-(4-(1-(4-Hydroxyphenyl)-2-phenylbut-1-en-1-yl)phenoxy)acetic Acid]	
62	CC/C(=C(/c1ccc(O)cc1)c1ccc(OCCO)cc1)c1ccccc1 [Compound 48, 4-(1-(4-(2-Hydroxyethoxy)phenyl)-2-phenylbut-1-en-1-yl)phenol]	
